# What was measured:
# Leishmania donovani [1] = assay: GSK_TCAKS: pIC50 Leishmania donovani Imaging: THP-1 Host Macrophages. Assay plates (384-well) were prepared by adding 250nL of compound to each well. For single shot assay, the final compound concentration was 5 uM. […] Automated image analysis was performed with a script developed on Acapella High Content Imaging and Analysis Software (PerkinElmer). Output: THP-1 cell count were reported for each well.; type: functional, organism-based, Homo sapiens
# [2] = test system: Trypanosoma brucei brucei; assay: GSK_TCAKS: pIC50 Trypanosoma brucei viability assay using fluorescence intensity. Assay plates (1536-well) were prepared by dispensing 25nL of compound solution per well using an Echo acoustic dispenser (Labcyte).; type: functional, organism-based; conditions: Lister 427, 2 h
# [3] = molecular target: Sterol 14-alpha demethylase (Trypanosoma cruzi (strain CL Brener), UniProt Q7Z1V1); assay: GSK_TCAKS: pIC50 CYP51 from Trypanosoma cruzi.; type: functional
# Chain of Sterol 14-alpha demethylase (Q7Z1V1 whole entry): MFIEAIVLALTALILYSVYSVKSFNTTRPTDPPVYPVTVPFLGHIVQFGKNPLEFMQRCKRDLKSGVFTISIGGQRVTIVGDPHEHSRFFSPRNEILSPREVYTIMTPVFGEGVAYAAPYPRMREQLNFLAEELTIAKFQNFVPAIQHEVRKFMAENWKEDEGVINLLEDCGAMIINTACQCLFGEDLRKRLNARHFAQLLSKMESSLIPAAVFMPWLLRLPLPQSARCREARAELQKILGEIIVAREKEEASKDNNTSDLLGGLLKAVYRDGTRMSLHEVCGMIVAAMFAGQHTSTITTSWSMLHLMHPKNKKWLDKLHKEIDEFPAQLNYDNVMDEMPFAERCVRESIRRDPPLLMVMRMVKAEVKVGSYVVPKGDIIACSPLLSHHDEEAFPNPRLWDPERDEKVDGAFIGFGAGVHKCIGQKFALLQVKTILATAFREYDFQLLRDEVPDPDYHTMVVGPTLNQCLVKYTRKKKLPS
# [4] = GSK_TCAKS: pIC50 HepG2 human cell line viability assay using luminiscence. […] Seeding density was checked to ensure that new mono-layers were not more than 50% confluent at the time of harvesting. Cell suspension was added to 500 mL of the same medium at a final density of 1.2 * 10^5 cells/mL. This cell suspension was dispensed (25 uL, 3000 cells per well) into 384-well clear-bottom plates using a Multidrop Combi dispenser. Prior to addition of the cell suspension, the screening compounds (250 nL) were pre-dispensed into the plates with an Echo liquid handler. Plates were incubated for 48 h at 37C, 5% CO2. After incubation, plates equilibrated at room temperature for 30 min before proceeding to develop the luminescent signal. The signal developer, CellTiter-Glo Reagent, was allowed to equilibrate at room temperature for 30 min and added to the plates (25uL per well) using a Multidrop Combi dispenser. Plates were left for 10 min at room temperature for stabilization and then read using a ViewLux.; type: toxicity, cell-based
# [5] = test system: Trypanosoma brucei brucei; assay: GSK_TCAKS: pIC50 Trypanosoma brucei viability assay using luminiscence. Assay plates (1536-well) were prepared. T. brucei cultures were harvested and counted in a CASY cell counter. A parasite suspension was prepared at a final concentration of 5 * 10^4 cells/mL in complete HMI9 medium and 6uL was dispensed to all wells containing compounds using a Multidrop Combi dispenser. 6uL of HMI9 media with 0.4% DMSO were dispensed to control columns. Plates were incubated for 24 h at 37C, 5% CO2 then tempered for 10 min at room temperature. ATP content was quantified by adding 4 uL of CellTiter-Glo Reagent (Promega) according to the manufacturer's instructions. Luminescence was measured using a ViewLux.; type: functional, organism-based; conditions: Lister 427, CASY
# Trypanosoma cruzi [6] = assay: GSK_TCAKS: pIC50 Trypanosoma cruzi Imaging: Amastigotes/Cell. […] Cells were then washed once with PBS before infection. T. cruzi trypomastigotes, collected at days 5 to 8 after infection from LLC-MK2 parasite infected cultures, were allowed to swim out for 4h at 37C from a centrifuged pellet (2,500 rpm/10 min/room temperature). Trypomastigotes were then collected and counted in a CASY Cell Counter. Trypomastigotes, in supplemented DMEM, were added to H9c2 cultures in a multiplicity of infection of 1 and incubated for 18 h. Cells were washed once with PBS before incubation of the infected H9c2 monolayer with trypsin (Life-Technologies) to detach cells from the flask. Cells were counted in a CASY Cell Counter using a 150 um capillary and their density set at 5 * 10^4 cells per mL in supplemented assay DMEM. Infected H9c2 were dispensed into 384-well poly-lysine coated assay plates at 50uL per well using a Multidrop Combi dispenser. After seeding them, the plates were incubated at 37C, 5% CO2 for 72h. Cultures were then fixed and stained by addition of 50 uL of a solution containing 8% formaldehyde and 4 uM DRAQ5 DNA dye (BioStatus, UK) per well. […] Five images were collected per well for reliable statistical analysis. Automated image analysis was performed with a script developed on Acapella High Content Imaging and Analysis Software (PerkinElmer). Output: number of amastigotes per cell as infection level measurement.; type: functional, organism-based, Rattus norvegicus; conditions: H9c2, 4 h
# Leishmania donovani [7] = assay: GSK_TCAKS: pIC50 Leishmania donovani Imaging: Infected Macrophages. Assay plates (384-well) were prepared by adding 250nL of compound to each well. For single shot assay, the final compound concentration was 5 uM. […] Automated image analysis was performed with a script developed on Acapella High Content Imaging and Analysis Software (PerkinElmer). Output: Percent of infected macrophage cells were reported for each well.; type: functional, organism-based, Homo sapiens; conditions: THP-1
# Trypanosoma cruzi [8] = assay: (§1) GSK_TCAKS: pIC50 Trypanosoma cruzi Imaging: Infected Cells. […] Cells were then washed once with PBS before infection. T. cruzi trypomastigotes, collected at days 5 to 8 after infection from LLC-MK2 parasite infected cultures, were allowed to swim out for 4h at 37C from a centrifuged pellet (2,500 rpm/10 min/room temperature). Trypomastigotes were then collected and counted in a CASY Cell Counter. Trypomastigotes, in supplemented DMEM, were added to H9c2 cultures in a multiplicity of infection of 1 and incubated for 18 h. Cells were washed once with PBS before incubation of the infected H9c2 monolayer with trypsin (Life-Technologies) to detach cells from the flask. Cells were counted in a CASY Cell Counter using a 150 um capillary and their density set at 5 * 10^4 cells per mL in supplemented assay DMEM. Infected H9c2 were dispensed into 384-well poly-lysine coated assay plates at 50uL per well using a Multidrop Combi dispenser. After seeding them, the plates were incubated at 37C, 5% CO2 for 72h. Cultures were then fixed and stained by addition of 50 uL of a solution containing 8% formaldehyde and 4 uM DRAQ5 DNA dye (BioStatus, UK) per well. […] Five images were collected per well for reliable statistical analysis. Automated image analysis was performed with a script developed on Acapella High Content Imaging and Analysis Software (PerkinElmer). Output: percentage of infected cells per well as a second infection marker.; type: functional, organism-based, Rattus norvegicus; conditions: H9c2, 4 h
# Leishmania donovani [9] = assay: GSK_TCAKS: pIC50 Leishmania donovani Imaging: Amastigotes/Macrophages. Assay plates (384-well) were prepared by adding 250nL of compound to each well. For single shot assay, the final compound concentration was 5 uM. […] Automated image analysis was performed with a script developed on Acapella High Content Imaging and Analysis Software (PerkinElmer). Output: Average number of amastigotes per macrophage cell were reported for each well.; type: functional, organism-based, Homo sapiens; conditions: THP-1
# Trypanosoma cruzi [10] = assay: as §1, with “H2C9” for “Trypanosoma cruzi”, “H9c2 Host Cardiomyocytes.” for “Infected Cells.”, “Number” for “percentage”, “H9c2 Host Cardiomyocytes nuclei to determine drug-related cytotoxicity.” for “infected cells per well as a second infection marker.”; type: functional, organism-based, Rattus norvegicus; conditions: H9c2, 4 h
# Leishmania donovani [11] = assay: GSK_TCAKS: pIC50 Leishmania donovani viability assay using fluorescence intensity. Assay plates (1536-well) were prepared by adding 30nL per well of compound. For single shot assay, the final compound concentration was 5uM. […] Briefly, eGFP LdBOB axenic amastigotes were harvested, fixed and counted in a CASY cell counter (Roche-Applied Science). A final concentration of 1.5 * 10^5 cells per well were prepared in amastigote media containing 500 U/mL penicillin/streptomycin (Invitrogen) and 6uL was dispensed to each experimental well using a Multidrop Combi dispenser (Thermo Scientific). 6uL of assay media was dispensed to control columns used as reference for 100% compound response. Following incubation for 72 h at 37C, 5% CO2, 2 uL of resazurin was added to each well at a final concentration of 0.5 mM in phosphate buffered saline (PBS) with IGEPAL (Sigma-Aldrich), 0.05% (v/v).; type: functional, organism-based
# Trypanosoma cruzi [12] = assay: GSK_TCAKS: pIC50 Trypanosoma cruzi viability assay using beta-GAL activity. This assay was run at single shot at 5uM compound concentration per well. The biological reagents consisted of NIH-3T3 host cells and trypomastigotes parasitic cells; both cell types were set to a 3.3 * 10^5 cells/mL dilution in assay DMEM by means of a CASY cell counter device using a 60um capillary. 6 uL of the mixture were dispensed per well (about 1 * 10^3 host-cells and 1 * 10^3 parasites) with a Multidrop Combi dispenser. […] In all wells, the percentage of DMSO never exceeded 0.5%. Plates incubated for four days at 37C, 5% CO2. The substrate used for the assay fluorescence intensity (FLINT) readout was resorufin-beta-D-galactopiranoside (Sigma-Aldrich) at 5uM per well. It was diluted in PBS supplemented with the soft detergent Igepal (Fluka).; type: functional, organism-based, Mus musculus; conditions: Tulahuen, NIH3T3
SMILES,IC50 (Leishmania donovani [1]),IC50 [2],IC50 [3],IC50 at 48 h [4],IC50 [5],IC50 (Trypanosoma cruzi [6]),IC50 (Leishmania donovani [7]),IC50 (Trypanosoma cruzi [8]),IC50 (Leishmania donovani [9]),IC50 (Trypanosoma cruzi [10]),IC50 (Leishmania donovani [11]),IC50 (Trypanosoma cruzi [12])
O=[N+]([O-])c1ccc(-c2nnn(-c3cccnc3)n2)o1,12.6 µM,0.316 µM,3.98 µM,> 100 µM,0.501 µM,0.0631 µM,> 50.1 µM,> 50.1 µM,50.1 µM,6.31 µM,15.8 µM,0.251 µM
CCOc1ccc(CN(C)Cc2nc(Nc3ccc(C)cc3)[nH]c(=N)n2)cc1,39.8 µM,2.51 µM,15.8 µM,31.6 µM,2 µM,5.01 µM,3.98 µM,5.01 µM,3.16 µM,3.16 µM,31.6 µM,6.31 µM
COCCn1c(-c2ccccc2)cnc1NCc1ccccc1OC,50.1 µM,25.1 µM,7.94 µM,20 µM,15.8 µM,6.31 µM,6.31 µM,15.8 µM,6.31 µM,> 50.1 µM,> 50.1 µM,14.1 µM
Nc1nc(-c2ccccc2)cc(-c2nc3cccnc3[nH]2)n1,> 50.1 µM,10 µM,> 100 µM,39.8 µM,15.8 µM,1.58 µM,2.51 µM,2 µM,2.51 µM,12.6 µM,3.98 µM,3.16 µM
COc1ccnc2[nH]cc(-c3cc(C(=O)N[C@H](CO)c4ccccc4)co3)c12,0.794 µM,0.00501 µM,0.794 µM,15.8 µM,0.0126 µM,7.94 µM,7.94 µM,20 µM,2 µM,0.316 µM,25.1 µM,1.26 µM
O=C(Nc1cccc(Cl)c1)Nc1ccc([N+](=O)[O-])cc1Cl,25.1 µM,2.51 µM,5.01 µM,31.6 µM,3.16 µM,1.58 µM,3.16 µM,2 µM,2 µM,3.98 µM,6.31 µM,1.26 µM
CC(C)(C)C(=O)Nc1cc(C2CC2)nn1-c1nc2c(c(=O)[nH]1)CCCC2,7.94 µM,0.158 µM,> 100 µM,> 100 µM,0.2 µM,0.126 µM,5.01 µM,0.501 µM,2 µM,2 µM,0.0794 µM,0.501 µM
Cc1ccc(NC(C)C(=O)Nc2ccc(C#N)cc2)cc1S(=O)(=O)N1CCCCC1 (configuration not stated),50.1 µM,7.94 µM,15.8 µM,79.4 µM,10 µM,7.94 µM,10 µM,7.94 µM,5.01 µM,> 50.1 µM,0.794 µM,10 µM
COc1ccc(C(=O)[C@H]2C[C@@H]2CN(Cc2ccccn2)Cc2ccccn2)cc1,> 50.1 µM,6.31 µM,39.8 µM,> 100 µM,15.8 µM,1 µM,1.58 µM,1.58 µM,1.26 µM,25.1 µM,7.94 µM,1.58 µM
COc1ccc(-c2csc(NC(=O)c3ccc([N+](=O)[O-])s3)n2)cc1,> 50.1 µM,0.0794 µM,> 100 µM,> 100 µM,0.794 µM,0.2 µM,3.98 µM,0.251 µM,1.58 µM,31.6 µM,3.16 µM,0.158 µM
Cc1cc(NC(=O)CC2CCCCC2)n(-c2nc3c(c(=O)[nH]2)CCC3)n1,3.98 µM,0.2 µM,> 100 µM,> 100 µM,0.158 µM,0.126 µM,3.16 µM,0.316 µM,1.58 µM,3.98 µM,0.0316 µM,0.251 µM

# Reference: ChEMBL document CHEMBL3430912, “GSK Tres Cantos Anti-Kinetoplastid Screening (TCAKS) Data”
